The text below walks through data of ChEMBL document CHEMBL1201862, “PubChem BioAssay data set” (2004).

Test systems include ACHN; EKVX; NCI-H23; SK-MEL-2; CAKI-1; Malme-3M; COLO 205; DU-145; RPMI-8226; HT-29; LOX IMVI; SK-MEL-5; HCC 2998; M14; CCRF-CEM; SNB-19; SF-268; MCF7; OVCAR-8; SR.
Holding throughout (assay): NCI anticancer screen, dose series, 48 h

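Following 48 hours of exposure in 96-well plates, responses at five concentrations were used to interpolate endpoints linearly. Here, GI50 denotes the concentration required for 50% inhibition of growth.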 Calls of active or inactive are those of the source. No stated cut-off is given here; in the data, active = GI50 up to about 1.1 µM and inactive = higher.

`CC(C)[C@H](NC(=O)[C@H](N)Cc1ccc(N(CCCl)CCCl)cc1)C(=O)O`: the GI50 in the experiment with ACHN, in the experiment on EKVX, with NCI-H23, in the experiment with SK-MEL-2, in the experiment with CAKI-1 and in the experiment on Malme-3M was > 100 µM (inactive) in each case. For the same compound, the GI50 with COLO 205, in the experiment on DU-145, with RPMI-8226, with HT-29, in the experiment with LOX IMVI and in the experiment on SK-MEL-5 was > 100 µM (inactive) in each case. Further, the GI50 was > 100 µM (inactive) with HCC 2998; > 100 µM (inactive) with M14; 78.7 µM (inactive) in the experiment with CCRF-CEM; > 100 µM (inactive) in the experiment with SNB-19; > 100 µM (inactive) in the experiment with SF-268; > 100 µM (inactive) in the experiment with MCF7. Besides, the GI50 in the experiment with OVCAR-8 is > 100 µM (inactive).
With `CC(=O)[C@]1(O)Cc2c(O)c3c(c(O)c2[C@@H](OC2CC(N)C(O)C(C)O2)C1)C(=O)c1c(OCc2ccccc2)cccc1C3=O` (some centres undefined), the GI50 is 0.946 µM (active) in the experiment on ACHN; 0.0933 µM (active) with SR; 3.05 µM (inactive) in the experiment on EKVX; 1.64 µM (inactive) with NCI-H23; 17.4 µM (inactive) in the experiment with SK-MEL-2; 1.64 µM (inactive) with CAKI-1. The GI50 in the experiment with Malme-3M is 3.33 µM (inactive); with COLO 205, 1.16 µM (inactive); with DU-145, 1.63 µM (inactive); in the experiment on RPMI-8226, 1.14 µM (inactive); in the experiment with HT-29, 1.51 µM (inactive); in the experiment with LOX IMVI, 0.604 µM (active). Further, the GI50 with SK-MEL-5 was 1.71 µM (inactive); with HCC 2998 it was 1.34 µM (inactive); in the experiment on M14 it was 1.49 µM (inactive); in the experiment on CCRF-CEM it was 0.202 µM (active); in the experiment with SNB-19 it was 1.5 µM (inactive); with SF-268, 1.75 µM (inactive). Further, the GI50 in the experiment with OVCAR-8 was 1.48 µM (inactive).
Turning to `Cc1cc2c(cc1Cl)Sc1nnc(C)n1S2(=O)=O`, the GI50 in the experiment on ACHN was 11.9 µM (inactive); in the experiment with EKVX it was 16 µM (inactive); in the experiment on NCI-H23 it was 12.9 µM (inactive); with CAKI-1 it was 15.6 µM (inactive); with Malme-3M, 8.67 µM (inactive); with COLO 205 it was 15.2 µM (inactive). The GI50 is 22 µM (inactive) with DU-145; 18.5 µM (inactive) in the experiment with HT-29; 10.1 µM (inactive) in the experiment on LOX IMVI; 13.6 µM (inactive) with SK-MEL-5; 17.7 µM (inactive) in the experiment with HCC 2998; 14 µM (inactive) in the experiment with M14. Further, the GI50 was 8.53 µM (inactive) in the experiment with CCRF-CEM; 23.5 µM (inactive) in the experiment on SNB-19; 14.9 µM (inactive) with SF-268; 4.44 µM (inactive) in the experiment with MCF7; 17.5 µM (inactive) with OVCAR-8.
Take `COCCOC(=O)C1=C(O)c2ccccc2S(=O)(=O)N1C`: the GI50 in the experiment with ACHN, in the experiment with SR, in the experiment on EKVX, in the experiment on NCI-H23, in the experiment with SK-MEL-2 and with CAKI-1 was > 100 µM (inactive) each time. Besides, the GI50 with Malme-3M, with COLO 205, in the experiment on DU-145, with RPMI-8226, with HT-29 and in the experiment with LOX IMVI was > 100 µM (inactive) each time. Besides, the GI50 in the experiment on SK-MEL-5, in the experiment with HCC 2998, with M14, in the experiment with CCRF-CEM, in the experiment with SNB-19 and with SF-268 was > 100 µM (inactive) each time. In the experiment with OVCAR-8, the GI50 is > 100 µM (inactive).
Turning to `O=C(NN1C(=O)CSC1c1ccco1)c1ccncc1` (centres undefined), the GI50 in the experiment on ACHN, in the experiment with EKVX, in the experiment on NCI-H23, in the experiment with SK-MEL-2, in the experiment with CAKI-1 and with Malme-3M was > 100 µM (inactive) in each case. In addition, the GI50 in the experiment with COLO 205, with DU-145, in the experiment on RPMI-8226, in the experiment with HT-29, in the experiment with SK-MEL-5 and with HCC 2998 was > 100 µM (inactive) each time. The GI50 with M14, with CCRF-CEM, in the experiment on SNB-19, in the experiment with SF-268, with MCF7 and in the experiment on OVCAR-8 was > 100 µM (inactive) in each case.
On to `CCOC(=O)c1c(N2CCCC2)nsc1Nc1ccc(F)cc1`, for which the GI50 was 31.2 µM (inactive) in the experiment with ACHN; 45.7 µM (inactive) in the experiment with SR; 8.38 µM (inactive) with EKVX; 27.1 µM (inactive) with NCI-H23; 19.2 µM (inactive) in the experiment on SK-MEL-2; 37.5 µM (inactive) in the experiment with CAKI-1. Moreover, the GI50 was 21.9 µM (inactive) with Malme-3M; 48.5 µM (inactive) with COLO 205; 45.3 µM (inactive) in the experiment with DU-145; 36.6 µM (inactive) with RPMI-8226; 23.6 µM (inactive) in the experiment on HT-29; 53.7 µM (inactive) with LOX IMVI. Besides, the GI50 in the experiment on SK-MEL-5 was 18 µM (inactive); in the experiment on HCC 2998, 31.4 µM (inactive); with M14, 48.8 µM (inactive); in the experiment with CCRF-CEM, 28.1 µM (inactive); with SNB-19, > 100 µM (inactive); in the experiment with SF-268, 73.6 µM (inactive). For the same compound, in the experiment on OVCAR-8, the GI50 was 41.4 µM (inactive).
Consider `Cc1ccc(Oc2cc(C)ccc2P(=O)(O)O)cc1`, for which the GI50 in the experiment with EKVX, in the experiment with NCI-H23, in the experiment on SK-MEL-2, in the experiment on CAKI-1, in the experiment on COLO 205 and in the experiment with DU-145 was > 100 µM (inactive) in each case. Besides, the GI50 in the experiment with RPMI-8226, in the experiment with LOX IMVI, in the experiment on SK-MEL-5, with HCC 2998, in the experiment on M14 and in the experiment with CCRF-CEM was > 100 µM (inactive) throughout. For the same compound, the GI50 in the experiment on SNB-19, in the experiment with SF-268, in the experiment on MCF7 and in the experiment on OVCAR-8 was > 100 µM (inactive) in each case.
Regarding `CC1(C)CC(=O)C(=CNC(N)=S)C(=O)C1`, the GI50 in the experiment on ACHN, in the experiment on EKVX, with NCI-H23, in the experiment on SK-MEL-2, with CAKI-1 and in the experiment with COLO 205 was > 100 µM (inactive) in each case. For the same compound, the GI50 in the experiment with DU-145, in the experiment on HT-29, with LOX IMVI, with SK-MEL-5, in the experiment on HCC 2998 and in the experiment on M14 was > 100 µM (inactive) in each case. The GI50 with CCRF-CEM, in the experiment on SNB-19, in the experiment on SF-268, with MCF7 and with OVCAR-8 was > 100 µM (inactive) in each case.
As to `CC(=O)CCn1c(=S)sc2ccccc21`, the GI50 is > 100 µM (inactive) with ACHN; > 100 µM (inactive) in the experiment on EKVX; > 100 µM (inactive) in the experiment with NCI-H23; > 100 µM (inactive) in the experiment with SK-MEL-2; 49.7 µM (inactive) with CAKI-1; > 100 µM (inactive) in the experiment with COLO 205. Further, the GI50 was > 100 µM (inactive) with DU-145; > 100 µM (inactive) in the experiment with HT-29; > 100 µM (inactive) with LOX IMVI; 56.8 µM (inactive) in the experiment with SK-MEL-5; > 100 µM (inactive) with HCC 2998; > 100 µM (inactive) in the experiment with M14. Moreover, the GI50 with CCRF-CEM is 25.6 µM (inactive); with SNB-19 it was > 100 µM (inactive); in the experiment on SF-268, > 100 µM (inactive); in the experiment on MCF7, > 100 µM (inactive); in the experiment with OVCAR-8, > 100 µM (inactive).
On to `CC(C)(SCc1ccccc1)C(N)C(=O)O` (centres undefined), for which the GI50 in the experiment on ACHN, in the experiment on SR, in the experiment on EKVX, in the experiment with NCI-H23, with SK-MEL-2 and in the experiment on CAKI-1 was > 100 µM (inactive) each time. For the same compound, the GI50 with Malme-3M, with DU-145, in the experiment on RPMI-8226, in the experiment on HT-29, in the experiment on LOX IMVI and in the experiment on SK-MEL-5 was > 100 µM (inactive) in each case. In addition, the GI50 in the experiment with M14, with CCRF-CEM, with SNB-19, in the experiment on SF-268 and with OVCAR-8 was > 100 µM (inactive) in each case.
As to `COCOc1ccc(C(=O)Oc2cccc3c2OC(C)(C)O3)c(OCOC)c1`, the GI50 in the experiment with ACHN is > 100 µM (inactive); in the experiment with EKVX it was > 100 µM (inactive); with NCI-H23, < 0.01 µM (active); in the experiment on CAKI-1, > 100 µM (inactive); with COLO 205, > 100 µM (inactive); with DU-145 it was > 100 µM (inactive). For the same compound, the GI50 was 38.7 µM (inactive) in the experiment on RPMI-8226; > 100 µM (inactive) in the experiment with HT-29; 35.7 µM (inactive) in the experiment on LOX IMVI; 54.8 µM (inactive) in the experiment on SK-MEL-5; 62.7 µM (inactive) in the experiment on HCC 2998; 89.1 µM (inactive) with M14. The GI50 was 22.1 µM (inactive) in the experiment on CCRF-CEM, 35.6 µM (inactive) in the experiment with SF-268, 33.2 µM (inactive) in the experiment with MCF7 and > 100 µM (inactive) in the experiment with OVCAR-8.
